Test [1] concerns spontaneously hypertensive rats (SH rats). As to the kind of experiment: Radiotelemetric measurement of blood pressure and heart rate on conscious SH rats. Format: in vivo. As to conditions: oral administration of 10 mg/kg. The protocol:
A commercially available telemetry system from Data Sciences International DSI, USA, is employed for the measurements on conscious SH rats described below.
The system consists of 3 main components: (1) implantable transmitter, (2) receiver which is linked via a multiplexer to a (3) data acquisition computer. The telemetry system makes it possible to record continuously the blood pressure and heart rate on conscious animals in their usual habitat.
The investigations are carried out on adult female spontaneously hypertensive rats (SH rats) with a body weight of >200 g. After transmitter implantation, the experimental animals are housed singly in type 3 Makrolon cages. They have free access to standard feed and water. […]
In the standard procedure, the following are measured for 10-second periods in each case: (1) systolic blood pressure (SBP), (2) diastolic blood pressure (DBP), (3) mean arterial pressure (MAP) and (4) heart rate (HR).
Measurement acquisition is repeated under computer control at 5-minute intervals. The source data obtained as absolute value are corrected in the diagram with the currently measured barometric pressure and stored in individual data. […]
The test substances are administered at 9.00 h on the day of the experiment. Following the administration, the parameters described above are measured over 24 hours. […]

Test [2] has as its target T1, Heme-free sGC (recombinant soluble guanylate cyclase) (Rattus norvegicus, UniProt P20595).
T1 construct: made in house
T1 sequence (P20595 1-619): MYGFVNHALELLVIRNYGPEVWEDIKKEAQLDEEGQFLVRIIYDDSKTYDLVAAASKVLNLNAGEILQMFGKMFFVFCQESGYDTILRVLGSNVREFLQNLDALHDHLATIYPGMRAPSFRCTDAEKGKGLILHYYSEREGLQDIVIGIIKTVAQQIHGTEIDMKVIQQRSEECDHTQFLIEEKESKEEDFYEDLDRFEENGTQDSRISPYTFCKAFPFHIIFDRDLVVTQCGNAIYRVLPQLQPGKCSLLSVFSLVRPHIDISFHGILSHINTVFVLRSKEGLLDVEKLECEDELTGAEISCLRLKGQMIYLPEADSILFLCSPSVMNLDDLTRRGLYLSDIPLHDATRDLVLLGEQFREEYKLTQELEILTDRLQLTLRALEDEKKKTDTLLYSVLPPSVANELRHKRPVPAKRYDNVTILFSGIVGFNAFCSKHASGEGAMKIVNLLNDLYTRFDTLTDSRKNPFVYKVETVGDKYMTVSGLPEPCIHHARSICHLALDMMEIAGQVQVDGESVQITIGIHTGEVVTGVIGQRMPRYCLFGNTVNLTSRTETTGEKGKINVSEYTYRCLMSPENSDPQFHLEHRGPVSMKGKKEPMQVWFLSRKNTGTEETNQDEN
T1 sequence (P19686 1-690 partner): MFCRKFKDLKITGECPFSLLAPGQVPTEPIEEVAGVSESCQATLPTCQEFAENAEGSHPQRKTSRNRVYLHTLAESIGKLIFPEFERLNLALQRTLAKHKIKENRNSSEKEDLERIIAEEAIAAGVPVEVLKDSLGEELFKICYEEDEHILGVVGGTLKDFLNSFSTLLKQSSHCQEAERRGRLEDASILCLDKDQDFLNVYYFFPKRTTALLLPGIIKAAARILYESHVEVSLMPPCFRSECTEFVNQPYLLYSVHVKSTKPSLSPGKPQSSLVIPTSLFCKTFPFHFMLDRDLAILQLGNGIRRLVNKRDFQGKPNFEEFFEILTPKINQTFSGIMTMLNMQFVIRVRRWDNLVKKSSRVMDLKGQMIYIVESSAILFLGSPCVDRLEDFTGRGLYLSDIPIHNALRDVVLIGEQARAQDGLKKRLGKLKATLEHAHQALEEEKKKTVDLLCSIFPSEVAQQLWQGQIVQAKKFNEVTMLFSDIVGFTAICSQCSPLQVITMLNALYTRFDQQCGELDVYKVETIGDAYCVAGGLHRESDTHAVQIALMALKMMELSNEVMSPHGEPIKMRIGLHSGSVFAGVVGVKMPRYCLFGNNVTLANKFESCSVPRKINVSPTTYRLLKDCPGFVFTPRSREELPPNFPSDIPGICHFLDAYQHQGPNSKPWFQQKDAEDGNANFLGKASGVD
As to the kind of experiment: Stimulation of recombinant soluble guanylate cyclase (sGC) in vitro, heme-free enzyme. In kind it is biochemical. As for the experimental part: Investigations on the stimulation of recombinant soluble guanylate cyclase (sGC) by the compounds according to the invention with and without sodium nitroprusside, and with and without the heme-dependent sGC inhibitor 1H-1,2,4-oxadiazole-(4,3a)-quinoxalin-1-one (ODQ) are carried out by the method described in detail in the following reference: M. Hoenicka, E. M. Becker, H. Apeler, T. Sirichoke, H. Schroeder, R. Gerzer and J.-P. Stasch, “Purified soluble guanylyl cyclase expressed in a baculovirus/Sf9 system: Stimulation by YC-1, nitric oxide, and […]”, J. Mol. Med. 77 (1999), 14-23. The heme-free guanylate cyclase is obtained by adding Tween 20 to the sample buffer (0.5% in the final concentration).
The activation of sGC by a test substance is reported as n-fold stimulation of the basal activity.

With `CC(C)(C)c1ccc(COc2ccccc2/C=C/C(CCc2ccc(-c3nnn[nH]3)cc2)Cc2ccc(C(=O)O)cc2)cc1` (single isomer, unassigned) [Example 6, 4-((3E)-4-{2-[(4-tert-Butylbenzyl)oxy]phenyl}-2-{2-[4-(1H-tetrazol-5-yl)phenyl]ethyl}but-3-en-1-yl)benzoic acid], the “Period of blood pressure reduction” value in test [1] is 11 h. Besides, the “Reduction in blood pressure” value in test [1] is “marked reduction in blood pressure”. The “Stimulation (n-fold) Heme-free sGC Basal” value in test [2] (0.001 μM Example 6) is recorded as 3.2 n-fold; in test [2] (0.01 μM Example 6), 20.4 n-fold; in test [2] (0.1 μM Example 6) it was 90.9 n-fold; in test [2] (1 μM Example 6) it was 143.8 n-fold; in test [2] (10 μM Example 6), 145.9 n-fold. Besides, the “Stimulation (n-fold) Heme-free sGC +10 μM ODQ” value in test [2] (0.001 μM Example 6 + 10 μM ODQ) was found to be 3.0 n-fold; in test [2] (0.01 μM Example 6 + 10 μM ODQ), 18.9 n-fold; in test [2] (0.1 μM Example 6 + 10 μM ODQ), 89.7 n-fold; in test [2] (1 μM Example 6 + 10 μM ODQ), 143.8 n-fold; in test [2] (10 μM Example 6 + 10 μM ODQ), 149.3 n-fold.
